From US20240287042A1, “NOVEL COMPOUND HAVING INHIBITORY ACTIVITY AGAINST PENDRIN, AND PHARMACEUTICAL USES THEREOF” (UIF (University Industry Foundation), Yonsei University, priority 2021, published 2024)

Columns and labels:
[1] = tested on: LPS-induced acute lung injury model; assay: LPS-induced acute lung injury model, i.p. pre- and post-treatment; format: in vivo, C57BL/6N mice; settings: vs vehicle-treated LPS mice
Experimental: Wild-type male C57BL/6N mice aged 8 to 10 weeks and weighing 20-24 g were purchased from Orient Bio (Seongnam, South Korea). […] Specifically, LPS (Escherichia coli, 0111: B4, Sigma) (10 μg/g) dissolved in 50 μL PBS was administered by intranasal (i.n.) inhalation. The control group received 50 μL of sterile PBS through intranasal administration. For pretreatment, YPI-A4948 dissolved in 50 μL DMSO was administered intraperitoneally (i.p) at 0.1 mg/kg, 1.0 mg/kg and 10 mg/kg, respectively, 1 hour before LPS inhalation, and for post-treatment, YPI-A4948 was administered at 0.1 mg/kg, 1.0 mg/kg, and 10 mg/kg, respectively, 12 hours after LPS inhalation. The vehicle control group was intraperitoneally administered with 50 μL DMSO at the same time point as pretreatment and post-treatment. Mice were euthanized 48 hours after LPS inhalation to remove the lungs. In addition, BALF cytospin staining and H&E lung tissue staining were performed to observe the degree of lung injury.

[2] = tested on: C57BL/6N mice; assay: Diuretic effect in mice (urine volume); format: in vivo; settings: i.p. twice at 3 h interval, urine volume after 6 hours, alone
Experimental: Wild-type male C57BL/6N mice aged 8 weeks and weighing 20-24 g were purchased from Orient Bio (Seongnam, South Korea). Before the experiment, water and diet were restricted, and the bladder was stimulated to induce urine. A 100 mg/ml stock concentration of YPI-A4948 dissolved in DMSO was prepared to have final concentrations of 0.001 mg/kg/100 ul, 0.005 mg/kg/100 ul and […] mg/kg/100 ul, 0.1 mg/kg/100 ul, 0.5 mg/kg/100 ul and 1 mg/kg/100 ul (1% DMSO+DW), respectively, and injected intraperitoneally twice with an interval of 3 hours. After 6 hours, the urine volume of each group of mice was measured.

[3] = tested on: LPS-induced lung injury mouse model; assay: LPS-induced lung injury mouse model with anion supply; format: in vivo, mice; settings: 5 μg/kg i.v. once 6 h after LPS
Experimental: Specifically, lipid polysaccharide (LPS, 200 μg/head) dissolved in 50 μL PBS was injected intranasally, and 6 hours after LPS inhalation, YPI-A4948 was intravenously administered once at 5 μg/kg, and at the same time, OH^−, HCO3^−, and SCN^− anions were administered intranasally, respectively. The mice were euthanized 24 hours after LPS inhalation to remove the lungs. Then, lung tissue H&E staining was performed to observe the degree of lung injury, and bronchoalveolar lavage fluid (BALF) was extracted in the same manner as in Example 12, and cytopathology staining using BALF total cell count, BALF protein concentration level, and Diff-Quik Stain was performed. Data provided are mean±SEM (n=3-5 per group), scale bar is 50 μm for H&E staining and cytopathology staining imaged at 400×.

[4] = tested on: LPS-induced lung injury model; assay: LPS-induced lung injury model in mice, i.v. treatment after LPS; format: in vivo, C57BL/6N mice
Experimental: Lipid polysaccharide (LPS, 200 μg/head) dissolved in 50 μL PBS was injected intranasally into C57BL/6N mice. YPI-A4948 (1, 10 μg/kg) was administered intravenously twice in total at 6 hours and 12 hours after LPS injection, and the mice were euthanized at 24 hours after LPS inhalation to remove the lungs. Immune cell recruitment was confirmed through bronchoalveolar lavage fluid (BALF) obtained by injecting 1 mL of PBS into the removed lung and then re-extracting the PBS. Lung injury parameters were measured by ELISA after lysing lung tissue. The expression level of pendrin protein was confirmed by Western blot, and this was digitalized and measured using a shade measuring instrument (mean±SEM, n=3 per group). Pendrin mRNA levels were determined by real-time quantitative PCR in extracted lung tissue (mean±SEM, n=3 per group). IL-10, MIP-2, IL-6, and TNF-α levels were measured by ELISA in lung tissue lysates (mean±SEM n=4-7 mice per group).

[5] = tested on: human nasal epithelial cells (HNE); assay: Volume of airway surface liquid (ASL) in IL-4-treated differentiated human nasal epithelial cells; format: cell-based; settings: 30 μM, IL-4 10 ng/ml, 48 hours
Experimental: For differentiation of primary cultures of human nasal epithelial cells, cells were cultured in Transwell (Transwell, Costar Co., Cambridge, MA) with 0.45 µm pores at a density of 2×10^5 cells/cm^2. Cells were cultured in a 1:1 mixed culture medium of Dulbecco's modified Eagle's medium (Lonza) and bronchial epithelial growth medium (Lonza) supplemented with the following growth factors, while changing the medium every 2 to 3 days. The cells were cultured in a precipitated state in the culture medium for the first 7 days, and during the subsequent culture period, and cultured by exposing the upper part of transwell to air. After establishment of the air-liquid interface (ALI), cells were cultured and differentiated for 21 days. At all stages of culture, the cell culture medium was maintained at 5% CO2 and 37° C.
Vehicle, IL-4 (10 ng/ml), and YPI-H05 (30 μM) were added to the basal fluid of transwell in which differentiated NHE cells expressing normal pendrin were growing, and cultured at 37° C. under 5% CO2 in an incubator for 48 hours. After cultured, a round filter paper with a diameter of 10 mm was placed in the lumen side of the transwell and left for 10 seconds to absorb moisture from the airway surface liquid. Changes in the volume of airway surface liquid were measured through increased filter paper weight using a precision electronic balance.

[6] = i.p. 0.1, 1.0, 10 mg/kg 1 h before and 12 h after LPS
[7] = i.v. 1, 10 μg/kg at 6 and 12 h after LPS, vs LPS only

| SMILES | BALF protein concentration [1, 6] | BALF total cell counts [1, 6] | Lung injury (BALF cytospin and H&E lung tissue staining) ([1]; i.p. before and after LPS) | Dose from which a diuretic effect is exhibited [2] [mg/kg] | Lung injury [3] | Lung injury improvement effect when OH−, HCO3−, SCN− anions are supplied intranasally [3] | Lung inflammatory cytokine IL-6 ([4]; ELISA in lung tissue lysates) | Lung inflammatory cytokine IL-10 ([4]; ELISA in lung tissue lysates) | Lung inflammatory cytokine MIP-2 ([4]; ELISA in lung tissue lysates) | Lung inflammatory cytokine TNF-α ([4]; ELISA in lung tissue lysates) | BALF protein concentration [4, 7] | BALF total cell counts [4, 7] | Level of pendrin mRNA in lung [4, 7] | Level of pendrin protein in lung [4, 7] | Volume of airway surface liquid (ASL) reduced by IL-4 [5] |
| --- | --- | --- | --- | --- | --- | --- | --- | --- | --- | --- | --- | --- | --- | --- | --- |
| Cc1ccc2[nH]c(C(=O)O)c(CC(=O)N3CCN(c4c(C)cccc4Cl)CC3)c2c1 [YPI-A4948, 3-(2-(4-(2-Chloro-6-methylphenyl)piperazin-1-yl)-2-oxoethyl)-5-methyl-1H-indole-2-carboxylic acid] | significantly reduced | significantly reduced | significantly reduced | ≥ 0.01 | reduced | weakened only by SCN^− | statistically significantly reduced | statistically significantly reduced | statistically significantly reduced | statistically significantly reduced | significantly reduced | significantly reduced | significantly reduced | significantly reduced | – |
| Cc1ccc(C)c(N2CCN(C(=O)Cc3c(C(=O)O)[nH]c4ccc(Cl)cc34)CC2)c1 [YPI-H05, 5-chloro-3-(2-(4-(2,5-dimethylphenyl)piperazin-1-yl-)-2-oxoethyl)-1H-indole-2-carboxylic acid] | – | – | – | – | – | – | – | – | – | – | – | – | – | – | significantly increased |
